From US10570140B2, “Selective inhibitors of protein arginine methyltransferase 5 (PRMT5)” (Prelude Therapeutics, Incorporated, priority 2017, dated 2020) come the findings set out here.

The nature of series [1]: physchem. To be noted: FaSSIF buffer, 25 °C, thermodynamic from solid.
The test system of series [2] is Granta-519. Description: Tumor growth inhibition in Granta-519 mouse xenograft model. The format is in vivo. As for the experimental part:
In Vivo Pharmacodynamic Effect and Tumor Growth Inhibition of Example 47 in Granta-519 Mouse Xenograft Model.
(§1) Granta-519 cells was maintained in DMEM medium supplemented with 10% fetal bovine serum and 2 mM L-Glutamine at 37° C. in an atmosphere of 5% CO2 in air. Cells in exponential growth phase were harvested and 1×10^7 cells in 0.1 mL of PBS with Matrigel (1:1) were injected subcutaneously at the right lower flank region of each mouse for tumor development. The treatments were started when the mean tumor size reaches approximately 300-400 mm^3. […] Example 47 or vehicle (0.5% Na CMC+0.5% Tween80, suspension) were administered orally (QD for Example 47, QD for vehicle) at a dose of 30 mg/kg and 50 mg/kg for 19 and 16 days, respectively. Body weights and tumor size were measured every 3 to 4 days after randomization. Animals were euthanized 12 hours after last dosing, and blood and tumor samples were collected for analysis.

Series [3] concerns Granta-519 cells. Description: Cell proliferation assay on Granta-519 cells (CCK-8, day 10). Conditions: Homo sapiens, 240 h, Granta-519 cell line, read-out: Prolif. IC50. Type of series: cell-based. As to the method: Cell Proliferation Assay to Determine IC50 on Granta-519 Cells
Granta-519 cells were maintained in PRMI 1640 (Corning Cellgro, Catalog #: 10-040-CV) medium supplemented with 10% v/v FBS (GE Healthcare, Catalog #: SH30910.03). Compounds were dissolved in DMSO to make 10 mM stocks and stored at −20° C. Nine-point, 3-fold serial dilutions were made with DMSO with top concentration at 1 mM (working stocks).
On day of experiment, compound working stocks were further diluted at 1:50 with fresh medium in 96 well plate, and 10 μL of diluted drugs were added to a new 96 well plate for proliferation assay. Cells growing at exponential phase were spun down at 1500 rpm for 4 min and resuspend in fresh medium to reach a density of 0.5×10^6 cells/ml. 200 ul of cells were added to 96 well plate containing diluted drugs and incubated for 3 days. DMSO was used a vehicle control.
One day 3, 10 μL of Cell Counting Kit-8 (CCK-8, Jojindo, CK04-13) solution was added to a new 96 well plate. Cells incubated with drugs for 3 days were resuspended by pipetting up and down, and 100 μL of cells were transferred to 96 well plate containing CCK-8 reagent to measure viable cells. Plates were incubated in CO2 incubator for 2 hours and OD450 values were measured with a microplate reader (iMark microplate reader, Bio-Rad).
For re-plating, compound working stocks were diluted at 1:50 with fresh medium and 10 μL of diluted drugs were added to a new 96 well plate. Cells from Day 3 plate (50 ul) were added to 96 well plate containing fresh drug and additional 150 μL of fresh medium was added to reach 200 μL volume. Plate was returned to CO2 incubator and incubated for 3 more days. Viable cells measurement and re-plating were repeated on day 6, and the final viable cells measurement was taken on day 10.
Percentage of viable cells, relative to DMSO vehicle control, were calculated and plotted in Graphpad Prism ([Inhibitor] vs. normalized response−Variable slope) to determine proliferation IC50 values on day 10.

The subject of series [4] is sDMA. Description: Western blot for symmetric di-methyl arginine (sDMA) IC50 in Granta cells. Type of series: cell-based. Conditions: Homo sapiens, 72 h; Granta-519 cell line, 3 days.
Series [5] has as its system sDMA. Description: sDMA levels in tumor samples of Granta-519 mouse xenograft (WB). Type of series: in vivo. As for the experimental part:
as §1
To measure sDMA levels in tumor samples, tumors from each mouse were weighted and homogenized in RIPA buffer supplemented with protease inhibitor (cOmplete™, EDTA-free Protease Inhibitor Cocktail, Roche). Lysate were centrifuged at 14,000 rpm for 30 min at 4° C. to remove debris. Total protein concentrations of lysate were determined by BCA assay (ThermoFisher Scientific, Catalog #: 23225). Equal amount of total proteins from each tumor were separated on SDS-PAGE gel, and sDMA levels were determined by WB as described previously.

Series [6] in a line: Rat non-crossover PK study. Type of series: in vivo. As to the method: In Vivo Pharmacokinetic Properties of Example 47.
In a rat (SD, male, non-fasted) non-crossover PK study, Example 47 was dosed at 1 mg/kg (DMA: 20% HPBCD=5:95, solution) via i.v. administration (N=3) and 1 mg/kg (0.5% Na CMC+0.5% Tween80, solution) via oral gauge (p.o.) (N=3).

The target of series [7] is PRMT5/MEP50 complex (Homo sapiens (Human), UniProt O14744). Description: PRMT5 biochemical assay (3H-SAM filter plate, histone H2A substrate). Conditions: PRMT5/MEP50 5 nM, histone H2A 5 μM, SAM 1 μM; read-out: PRMT5 IC50. As to the method:
Biochemical Assay Protocol
Compounds were solubilized and 3-fold diluted in 100% DMSO. […] Standard reactions were performed in a total volume of 50 μl in assay buffer, with histone H2A (5 μM final) as substrate. To this was added the PRMT5/MEP50 complex diluted to provide a final assay concentration of 5 nM and the compounds were allowed to preincubate for 15 to 20 minutes at room temperature. The reaction was initiated by adding S-[3H-methyl]-adenosyl-L-methionine (PerkinElmer) to final concentration of 1 μM. Following a 60 minutes incubation at 30° C., the reaction was stopped by adding 100 μL of 20% TCA. Each reaction was spotted onto filter plate (MultiScreen FB Filter Plate, Millipore), and washed 5 times with PBS buffer, Scintillation fluid was added to the filter plate and read in a scintillation counter. IC50 values were determined by fitting the data to the standard 4 parameters with Hill Slope using GraphPad Prism software.

The nature of series [8]: Body weight in Granta-519 mouse xenograft study. Type of series: in vivo. As for the experimental part: as §1

Structures can show the parent of a compound that is named as a salt.

Chain of PRMT5/MEP50 complex (O14744 whole entry): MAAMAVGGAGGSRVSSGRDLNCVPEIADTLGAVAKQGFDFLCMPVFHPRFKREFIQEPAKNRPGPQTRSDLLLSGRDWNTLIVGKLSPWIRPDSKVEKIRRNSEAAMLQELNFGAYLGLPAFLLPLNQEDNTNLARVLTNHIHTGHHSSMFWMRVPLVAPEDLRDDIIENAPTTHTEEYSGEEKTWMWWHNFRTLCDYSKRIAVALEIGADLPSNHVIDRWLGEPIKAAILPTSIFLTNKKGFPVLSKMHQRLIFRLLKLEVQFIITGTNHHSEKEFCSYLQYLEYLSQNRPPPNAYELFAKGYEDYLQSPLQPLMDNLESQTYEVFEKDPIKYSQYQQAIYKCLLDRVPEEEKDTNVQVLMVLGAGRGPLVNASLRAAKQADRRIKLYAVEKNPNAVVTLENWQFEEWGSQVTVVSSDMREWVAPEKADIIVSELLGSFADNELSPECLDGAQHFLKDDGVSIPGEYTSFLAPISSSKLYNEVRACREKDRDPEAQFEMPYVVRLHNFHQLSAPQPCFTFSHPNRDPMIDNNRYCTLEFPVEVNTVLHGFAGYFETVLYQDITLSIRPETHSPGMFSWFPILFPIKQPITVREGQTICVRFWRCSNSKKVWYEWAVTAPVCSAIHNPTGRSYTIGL
Chain of PRMT5/MEP50 complex (Q9BQA1 whole entry partner): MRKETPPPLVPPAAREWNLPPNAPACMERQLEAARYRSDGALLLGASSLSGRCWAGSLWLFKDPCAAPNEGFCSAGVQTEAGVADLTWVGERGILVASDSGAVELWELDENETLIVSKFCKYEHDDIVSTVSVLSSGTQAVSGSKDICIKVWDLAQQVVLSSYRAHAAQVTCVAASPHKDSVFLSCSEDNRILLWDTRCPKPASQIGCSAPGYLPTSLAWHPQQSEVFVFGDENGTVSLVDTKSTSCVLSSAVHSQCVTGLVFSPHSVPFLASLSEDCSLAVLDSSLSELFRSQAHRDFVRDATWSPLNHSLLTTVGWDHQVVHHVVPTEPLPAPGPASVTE

`C[C@@]1(O)[C@@H]([C@H](O)c2ccc(Cl)c(Cl)c2)O[C@@H](n2ccc3c(N)ncnc32)[C@@H]1O` [Example 48, (2R,3S,4R,5R)-5-(4-amino-7H-pyrrolo[2,3-d]pyrimidin-7-yl)-2-((R)-(3,4-dichlorophenyl)(hydroxy)methyl)-3-methyltetrahydrofuran-3,4-diol Sulfate Salt] came in with a solubility at 4 h in series [1] of 206 µg/mL.
For `C[C@@]1(O)[C@@H]([C@H](O)c2ccc(Cl)c(Cl)c2)O[C@@H](n2ccc3c(N)ncnc32)[C@@H]1O` [Example 47, (2R,3S,4R,5R)-5-(4-amino-7H-pyrrolo[2,3-d]pyrimidin-7-yl)-2-((R)-(3,4-dichlorophenyl)(hydroxy)methyl)-3-methyltetrahydrofuran-3,4-diol], the tumor growth inhibition in series [2] (30 mg/kg orally QD, 19 days, average (N=5)) came to 46%; in series [2] (50 mg/kg orally QD, 16 days, average), 79%. In addition, the results for the half-maximal inhibitory concentration (IC50) in series [3], in series [4] and in series [7] were 75 nM, 31 nM and 1.5 nM, respectively. Besides, the sDMA in tumor result in series [5] (50 mg/kg) is “no detectable sDMA”. The inhibition at 30 mg/kg in series [5] (Mus musculus, Granta-519, 30 mg/kg) was over 90%. In addition, the half-life in series [6] (blood, iv, rat (SD, male, non-fasted), 1 mg/kg i.v., average) is 4.1 h. In addition, the Vd in series [6] (male, SD, blood, iv, rat, 1 mg/kg i.v., average, read-out: Vss) was 3.1 L/kg. This compound also came in with a bioavailability in series [6] (male, SD, blood, po, rat, 1 mg/kg p.o.) of over 100%. This compound registered a clearance in series [6] (male, SD, whole blood, iv, rat, 1 mg/kg i.v., average) of 8.8 mL/min/kg. Further, the “dose normalized AUC” value in series [6] (rat, 1 mg/kg p.o., average) stood at 3246 ng·kg·h/mL/mg. The body weight loss in series [8] (30 mg/kg orally QD, 19 days) is given as 1%; in series [8] (50 mg/kg orally QD, 16 days) it was 8%.
